Results published in the NIST ThermoML archive (doi:10.1021/je0301489).
Several values for one entry are separate records, joined by “and”; a condition that tells them apart may be missing. Identical values can stand only once. ± gives the expanded uncertainty stated by the source.

Assays:
[1] = refractive index (Na D-line) (dimensionless); conditions: 101.33 kPa, Liquid
[2] = 101.33 kPa, Liquid

Row | SMILES | refractive index ([1]; 298.15 K) | refractive index ([1]; 303.15 K) | refractive index ([1]; 308.15 K) | mass density ([2]; 298.15 K) [kg/m3] | speed of sound ([2]; 298.15 K) | viscosity ([2]; 298.15 K) | mass density ([2]; 303.15 K) [kg/m3] | viscosity ([2]; 303.15 K) [mPa·s] | mass density ([2]; 308.15 K) [kg/m3] | viscosity ([2]; 308.15 K) [mPa·s]
1 | CCOC(=O)c1ccccc1C(=O)OCC [diethyl phthalate] | 1.5001 ± 0.0009 | 1.4978 ± 0.0009 | 1.4958 ± 0.0009 | 1115.1 ± 2.1 | 1446 ± 5 m/s | 7.926 ± 0.14 mPa·s | 1110.2 ± 2.1 | 6.129 ± 0.11 | 1105.6 ± 2.1 | 4.893 ± 0.091
2 | CCCCCCCCOC(=O)c1ccccc1C(=O)OCCCCCCCC [dioctyl 1,2-benzenedicarboxylate] | 1.485 ± 0.0025 | 1.4831 ± 0.0025 | 1.481 ± 0.0025 | 980.7 ± 1 | 1421 ± 3 m/s | 43.03 ± 0.7 mPa·s | 977.1 ± 1 | 30.18 ± 0.5 | 973.1 ± 1 | 21.88 ± 0.37
3 | CCOC(=O)C(=O)OCC [diethyl ethanedioate] | 1.4084 ± 0.0006 | 1.406 ± 0.0006 | 1.4034 ± 0.0006 | 1072.9 ± 1.1 | 1276 ± 3 m/s | 1.759 ± 0.021 mPa·s | 1066.2 ± 1.1 | 1.581 ± 0.019 | 1060.8 ± 1.2 | 1.437 ± 0.017
4 | C1COCCO1 [1,4-dioxane] | 1.4201 ± 0.0007 and 1.4202 ± 0.0007 | 1.417 ± 0.0007 | 1.4144 ± 0.0007 | 1027.6 ± 1.1 | 1347 ± 3 m/s and 1348 ± 3 m/s | 1.166 ± 0.015 mPa·s and 1.167 ± 0.015 mPa·s | 1021.9 ± 1.2 | 1.069 ± 0.014 | 1016.2 ± 1.2 | 0.984 ± 0.013
